Experimental findings from ChEMBL document CHEMBL1201862, “PubChem BioAssay data set” (2004) are described below.

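A five-concentration, 48-hour dose response in 96-well plates underlies each endpoint, interpolated linearly between surrounding concentrations. The concentration for 50% growth inhibition is given as GI50.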 Active and inactive are the calls of the source. Rule as the data show it: active = GI50 up to about 1.1 µM and inactive = higher.

Some test systems named below: A549; RXF 393; HL-60; IGROV-1; MCF7; COLO 205; NCI-H522; NCI-H226; SW-620; SF-539; HCT-15; SK-OV-3; SF-268; SK-MEL-28; EKVX; HOP-92.
What all share (experiment): NCI tumour cell line growth inhibition, 48 h

Regarding `CCOP(=O)(OCC)/C(=C/n1c(=S)[nH]c2ccccc21)C(=O)OC`, the GI50 with A549, in the assay with RXF 393, with HL-60, with IGROV-1, in the assay on MCF7 and in the assay with COLO 205 was > 100 µM (inactive) throughout. In addition, the GI50 is > 100 µM (inactive) with NCI-H522; > 100 µM (inactive) in the assay on NCI-H226; > 100 µM (inactive) with SW-620; > 100 µM (inactive) in the assay on SF-539; 11.7 µM in the assay on HCT-15; > 100 µM (inactive) in the assay with SK-OV-3. Besides, the GI50 in the assay on SF-268, in the assay with SK-MEL-28 and in the assay on EKVX was > 100 µM (inactive) each time.
Regarding `Oc1ccc(-c2ccccc2)nn1`, the GI50 with A549, in the assay with RXF 393, with HL-60, in the assay with IGROV-1, in the assay on NCI-H522 and in the assay on SW-620 was > 100 µM (inactive) in each case. The GI50 is > 100 µM (inactive) in the assay on HOP-92; over 100 µM in the assay with HCT-15; > 100 µM (inactive) with SF-268; > 100 µM (inactive) with SK-MEL-28; > 100 µM (inactive) with EKVX.
Regarding `Cc1csc2nc3c(cnn3C)c(=S)n12`, the GI50 in the assay with A549 was > 100 µM (inactive); with RXF 393 it was 35.1 µM (inactive); with IGROV-1 it was > 100 µM (inactive); in the assay with MCF7 it was > 100 µM (inactive); with COLO 205, > 10 µM (inactive); with NCI-H522, 11 µM (inactive). The GI50 in the assay on SW-620 was > 100 µM (inactive); in the assay on SF-539, > 100 µM (inactive); with HCT-15, 71.4 µM; with SK-OV-3, 61.8 µM (inactive); in the assay on SF-268 it was > 100 µM (inactive); with SK-MEL-28 it was > 100 µM (inactive). Further, the GI50 in the assay with EKVX was 14.9 µM (inactive).
For `CCOC(=O)N1CC2(C)C=CC1C(C(=O)OC)C2` (centres undefined), the GI50 in the assay on A549, with RXF 393, with HL-60, with IGROV-1, in the assay with MCF7 and in the assay with COLO 205 was > 100 µM (inactive) in each case. Moreover, the GI50 is > 100 µM (inactive) in the assay on NCI-H522; 69.8 µM (inactive) in the assay on NCI-H226; > 100 µM (inactive) with SW-620; over 100 µM in the assay on HCT-15; > 100 µM (inactive) in the assay on SK-OV-3; > 100 µM (inactive) with SF-268. The GI50 in the assay with SK-MEL-28 and in the assay with EKVX was > 100 µM (inactive) each time.
Take `CCCc1cc(COC)c(C#N)c(O)n1`: the GI50 with A549, in the assay on RXF 393, in the assay on HL-60, in the assay with IGROV-1, in the assay on MCF7 and in the assay on COLO 205 was > 100 µM (inactive) throughout. In addition, the GI50 in the assay on NCI-H522 is > 100 µM (inactive); in the assay on NCI-H226, 17.5 µM (inactive); in the assay with SW-620, > 100 µM (inactive); with SF-539, 65 µM (inactive); in the assay on HCT-15, over 100 µM; in the assay on SK-OV-3, > 100 µM (inactive). In addition, the GI50 in the assay with SF-268, with SK-MEL-28 and in the assay with EKVX was > 100 µM (inactive) in each case.
Regarding `CN1CN(c2ccccc2)C2(CCN(CCc3csc4ccccc34)CC2)C1=O`, the GI50 was 24.2 µM (inactive) with A549; 12.6 µM (inactive) in the assay with RXF 393; 9.38 µM (inactive) with HL-60; 21.7 µM (inactive) in the assay with IGROV-1; 13.3 µM (inactive) with MCF7; 14.3 µM (inactive) with COLO 205. The GI50 is 15.9 µM (inactive) in the assay with NCI-H522; 17.4 µM (inactive) in the assay with NCI-H226; 16.9 µM (inactive) with SW-620; 11 µM (inactive) with SF-539; 10.7 µM in the assay on HCT-15; 25.9 µM (inactive) with SK-OV-3. Moreover, the GI50 in the assay on SF-268 is 28.8 µM (inactive); in the assay on SK-MEL-28, 15.7 µM (inactive); with EKVX, 12.8 µM (inactive).
`CCOC(=O)C1=C(C(=O)c2ccc(C)cc2)C(c2cccc([N+](=O)[O-])c2)C(C(=O)c2ccc(C)cc2)=C(C(=O)OCC)N1`: the GI50 is 24.2 µM (inactive) in the assay on A549; 21 µM (inactive) in the assay on RXF 393; 29.8 µM (inactive) in the assay on HL-60; 16.2 µM (inactive) with IGROV-1; 16 µM (inactive) in the assay on MCF7; 1.95 µM (inactive) in the assay on COLO 205. Besides, the GI50 in the assay on NCI-H522 is 15.6 µM (inactive); with NCI-H226 it was 19.1 µM (inactive); in the assay on SW-620, 14.1 µM (inactive); with SF-539, 12.8 µM (inactive); in the assay with HCT-15, 0.853 µM; in the assay with SK-OV-3 it was 5.92 µM (inactive). Further, the GI50 with SF-268 was 17.7 µM (inactive); in the assay with SK-MEL-28, 17.8 µM (inactive); in the assay on EKVX, 24.1 µM (inactive).
As for `COc1ccc(CCCNC(=O)Cc2cc(OC)c(OC)cc2CO)cc1OC`, the GI50 in the assay with A549, with HL-60, in the assay on IGROV-1, in the assay on COLO 205, with NCI-H226 and with SW-620 was > 100 µM (inactive) throughout. Moreover, the GI50 in the assay with HOP-92 is > 100 µM (inactive); in the assay with HCT-15 it was over 100 µM; in the assay with SK-MEL-28 it was > 100 µM (inactive); in the assay on EKVX, > 100 µM (inactive).
For `C[N+]1(C)C(c2ccccc2)C(=O)O[B@-]1(F)c1ccccc1` (some centres undefined), the GI50 in the assay on A549, in the assay on HL-60, in the assay on IGROV-1, in the assay on MCF7, in the assay with COLO 205 and in the assay on NCI-H226 was > 100 µM (inactive) in each case. For the same compound, the GI50 in the assay on SW-620 is > 100 µM (inactive); with HOP-92, 88.1 µM (inactive); in the assay with HCT-15, over 100 µM; in the assay with SK-OV-3, > 100 µM (inactive); with SF-268 it was > 100 µM (inactive); in the assay with SK-MEL-28 it was > 100 µM (inactive). In addition, the GI50 in the assay with EKVX was > 100 µM (inactive).
Regarding `CS/C(=N\S(=O)(=O)c1ccc(Cl)cc1)NCCCCN/C(=N/S(=O)(=O)c1ccc(Cl)cc1)SC`, the GI50 in the assay with HL-60 is > 100 µM (inactive); in the assay on IGROV-1, 83 µM (inactive); in the assay with MCF7 it was > 100 µM (inactive); with COLO 205, > 100 µM (inactive); in the assay on SW-620, > 100 µM (inactive); with SF-539, > 100 µM (inactive). The GI50 was 60.1 µM (inactive) with HOP-92; over 100 µM with HCT-15; 32.5 µM (inactive) with SF-268; 95.3 µM (inactive) with SK-MEL-28; > 100 µM (inactive) in the assay with EKVX.
For the compound `Cc1nnc(N)nc1/C=C\c1ccc(N(C)C)cc1`, the GI50 is 9.79 µM (inactive) in the assay with A549; > 40.1 µM (inactive) in the assay on RXF 393; 3.32 µM (inactive) in the assay on HL-60; 37.5 µM (inactive) with IGROV-1; 3.85 µM (inactive) in the assay with MCF7; > 29.7 µM (inactive) in the assay on COLO 205. In addition, the GI50 in the assay with NCI-H522 is 1.68 µM (inactive); in the assay on NCI-H226, 16.1 µM (inactive); in the assay with SW-620, > 64.6 µM (inactive); with HCT-15 it was 2.99 µM; in the assay with SK-OV-3 it was > 29.4 µM (inactive); in the assay with SF-268, > 34.2 µM (inactive). Also, the figures for the GI50 with SK-MEL-28 and in the assay with EKVX were > 45.9 µM (inactive) and 29.6 µM (inactive), respectively.
Turning to `CCOC(=O)CCC(NC(=O)c1ccc(Nc2nc3ccccc3nc2C(=O)OCC)cc1)C(=O)OCC` (centres undefined), the GI50 was 3.78 µM (inactive) in the assay on A549; > 100 µM (inactive) in the assay on HL-60; 3.54 µM (inactive) in the assay on IGROV-1; 11.3 µM (inactive) with MCF7; > 33.7 µM (inactive) in the assay on COLO 205; 3.3 µM (inactive) in the assay on NCI-H522. The GI50 in the assay with NCI-H226 was 3.24 µM (inactive); in the assay with SW-620 it was 5.77 µM (inactive); with SF-539, 2.48 µM (inactive); in the assay on HOP-92, 3.91 µM (inactive); with HCT-15, 18.1 µM; in the assay with SK-OV-3, 2.47 µM (inactive). Further, the GI50 with SF-268 is 7.71 µM (inactive); in the assay on SK-MEL-28, 8.91 µM (inactive); in the assay on EKVX it was 7.38 µM (inactive).
In the case of `COc1ccc(/N=N/c2c(C)c(C#N)c(=S)n(C3OC(COC(C)=O)C(OC(C)=O)C(OC(C)=O)C3OC(C)=O)c2-c2ccccc2)cc1` (centres undefined), the GI50 in the assay on A549 is 8.18 µM (inactive); in the assay with RXF 393 it was 11.5 µM (inactive); with HL-60 it was 3.13 µM (inactive); in the assay on MCF7, 4.62 µM (inactive); in the assay on COLO 205, 6.93 µM (inactive); in the assay on SW-620, 2.92 µM (inactive). The GI50 with SF-539 was > 10 µM (inactive); in the assay on HOP-92, 4.01 µM (inactive); with HCT-15 it was 14.9 µM; with SF-268, 9.59 µM (inactive); in the assay on SK-MEL-28, 7.98 µM (inactive).
As to `COc1ccc2c(c1)C1Oc3ccccc3CC1(O)CO2` (centres undefined), the GI50 in the assay with A549, with IGROV-1, with MCF7, in the assay on COLO 205, in the assay with NCI-H522 and with NCI-H226 was > 100 µM (inactive) each time. Also, the GI50 in the assay with SW-620 is > 100 µM (inactive); in the assay with SF-539 it was > 100 µM (inactive); in the assay on HOP-92, > 100 µM (inactive); in the assay with HCT-15, over 100 µM; with SK-OV-3 it was > 100 µM (inactive); in the assay on SF-268, > 100 µM (inactive). Further, the GI50 in the assay on EKVX was > 100 µM (inactive).
On to `O=c1c2ccccc2c2c1c1c3ccccc3c(=O)c1c1c3ccccc3c(=O)c21`, for which the GI50 in the assay with A549, in the assay on HL-60, in the assay on IGROV-1, in the assay with MCF7, in the assay on COLO 205 and in the assay on NCI-H522 was > 100 µM (inactive) in each case. The GI50 with NCI-H226 is > 100 µM (inactive); in the assay on SW-620, > 100 µM (inactive); in the assay on SF-539, > 100 µM (inactive); in the assay on HCT-15, over 100 µM; in the assay with SK-OV-3, > 100 µM (inactive); with SF-268, > 100 µM (inactive). Further, the GI50 in the assay with SK-MEL-28 and in the assay with EKVX was > 100 µM (inactive) throughout.
